Results from patent publication EP4623908A1, “USE OF (-)-EPIGALLOCATECHIN GALLATE COMPOUND” (CF Pharmtech, Inc., priority 2022, dated 2024).

Key:
[1] = Single-dose escalation study of nebulized inhalation solution in healthy volunteers, safety and pharmacokinetics (Example 7); type: in vivo; conditions: for subjects with local symptoms in the oropharynx and respiratory tract: nebulized inhalation solution, single dose
Experimental: A randomized, double-blind, placebo-controlled clinical study was conducted with 22 healthy volunteers to evaluate the safety and tolerability of single-dose inhalation of EGCG nebulized solution, as well as pharmacokinetic characteristics, compared to placebo nebulized solution and oral EGCG capsules.
Test group: EGCG nebulized inhalation solution (the EGCG nebulized solution containing EDTA as described in Example 6), with an initial concentration of 10mg/mL, diluted to different doses before administration.
Oral control group: EGCG capsules, each weighing 150mg, with EGCG content approximately 94% of the total weight.
Refer to Table 6 below. The oral control group was randomly assigned 4 volunteers to receive 600mg of EGCG capsules (4 capsules, approximately 564mg of EGCG).
The EGCG nebulized inhalation treatment included 3 groups: • 1. 3mg dose group: 1mL of the starting drug solution was diluted to 1mg/mL, and 3mL was administered via the nebulizer. • 2. 10mg dose group: 1mL of the starting drug solution was diluted to 3.33mg/mL, and 3mL was administered via the nebulizer. • 3. 30mg dose group: The starting drug solution was not diluted, and 3mL was directly administered via the nebulizer.
Each nebulized inhalation dose group was randomly assigned 6 volunteers, starting with the lowest dose. In each group, 2 volunteers were designated as sentinels (1:1 randomization, 1 in the EGCG nebulized inhalation group and 1 in the placebo group), observed for ≥24 hours, and the study investigator performed a safety assessment. After permission from the investigator, the remaining 4 volunteers in each group received their assigned treatment (3:1 randomization, 3 in the EGCG nebulized inhalation group and 1 in the placebo group). Table 6: Group Information for Oral Control and EGCG Nebulized Inhalation Administration Groups.
Blood samples were collected from the subjects at 13 time points: pre-dose (within 1 hour before administration), and post-dose at 15 minutes, 30 minutes, 1 hour, 1.5 hours, 2 hours, 3 hours, 4 hours, 6 hours, 8 hours, 10 hours, 12 hours, and 24 hours. A total of 4mL of blood was collected at each time point, and plasma was extracted for pharmacokinetic (PK) testing, backup, and metabolite identification.
Adverse event (AE) monitoring; physical examination; vital signs (body temperature, blood pressure, pulse, respiration), blood oxygen saturation; heart function; lung function.

[2] = system: Bleomycin-Induced Pulmonary Fibrosis in Mice; test: Bleomycin-induced pulmonary fibrosis model in mice (Example 4); type: in vivo, C57BL/6J mice; conditions: for Hydroxyproline Content: mouse lung tissue, Mean±SEM
Experimental: A total of 56 male C57BL/6J mice, SPF grade, aged 7-10 weeks, with a body weight range of 20-35g, were purchased from SPF (Beijing) Biotechnology Co., Ltd..
Injectable Bleomycin (BLM, 15mg/vial, batch number 20067411): Hanhui Pharmaceutical Co., Ltd. • Solvent 1: Components include purified water, citric acid, and sodium citrate, a transparent, clear liquid. • Solvent 2: Sodium chloride injection (batch number K21080307), purchased from Hanhui Pharmaceuticals Co., Ltd (formerly Hisun-Pfizer Pharmaceuticals Co., Ltd.). • Hydroxyproline (HYP) assay kit: Purchased from Merck Sigma-Aldrich.
The mice were randomly divided into the following groups, with 8 mice in each group: • Sham operation group (normal control group), • Pulmonary fibrosis model group, • Oral gavage group, • Tracheal Nebulization groups 1-4.
On Day 1 (D1), the normal control group mice were administered solvent 2 (sodium chloride injection, 1 mL/kg) via tracheal nebulization. All other groups were administered bleomycin (2 mg/kg, 1 mL/kg) via tracheal nebulization in the morning and afternoon to construct the pulmonary fibrosis model.
The oral gavage dose for mice was 100 mg/kg (calculated based on the oral dose of 60 mg/kg for rats, according to FDA guidelines, and converted for equivalent oral dosage in mice by body surface area). The tracheal nebulization doses were 0.2 mg/kg, 0.4 mg/kg, 0.8 mg/kg, and 1.6 mg/kg. Both the normal control group and the pulmonary fibrosis model group were administered solvent 1 via tracheal nebulization once a day, starting on D10 post-model induction.
Mice from each group were anesthetized on Day 22 via intraperitoneal injection of chloral hydrate (50 mg/mL, 0.1 mL/10g) and sacrificed by abdominal aorta blood collection. All animals underwent dissection, and lung tissues were preserved. The total lung weight (including animals that died unexpectedly or were euthanized) was measured. The left lung was excised and stored at below -60°C for hydroxyproline content testing. The remaining right lung tissue and bronchioles were fixed in 10% neutral-buffered formalin and processed for routine histology: paraffin embedding, sectioning, HE staining, and Masson staining.
Lung coefficient = lung weight (mg)/body weight (g). [formula] Early-stage inflammation with infiltration of inflammatory cells, followed by the proliferation of fibroblasts and excessive collagen deposition, leads to an increase in lung coefficient. Thus, the lung coefficient serves as an indirect indicator of the inflammation and fibrosis degree in mice.
Mice were weighed prior to grouping, on the model induction day, after the first drug administration, and every 3 days thereafter. […] Changes in body weight reflect the effect of the drug administration. Statistical analysis was performed using two-way ANOVA and Tukey's multiple comparison test.
Lung tissue inflammation, fibroproliferation, and other pathological changes were evaluated by optical microscopy on HE-stained sections. Masson staining was used to assess the degree of fibrosis in lung tissue. Standardized terminology was applied to classify fibrosis, inflammatory cell infiltration, alveolar hemorrhage, dilation, epithelial hyperplasia, and fibrous exudate using a 4-point scale (mild, moderate, severe, and very severe).
Hydroxyproline content in lung tissue was measured according to the instructions of the assay kit.
Statistical tests commonly used in the field, such as Student's t-test, chi-square test, Mann-Whitney U test, Kruskal-Wallis test (H test), Jonckheere-Terpstra test, and Wilcoxon test, were performed. Statistical analysis was done using SPSS (13.0) software. Results are presented as mean ± standard error. Overall differences were evaluated by One-Way ANOVA for homogeneity of variance, followed by Dunnett's test for inter-group comparisons. When normality tests failed, Kruskal-Wallis test was used for inter-group comparisons. Two-Way ANOVA and Tukey's test were used for multiple comparisons between groups. […]

[3] = human plasma, after inhalation compared to oral administration

For `O=C(O[C@@H]1Cc2c(O)cc(O)cc2O[C@@H]1c1cc(O)c(O)c(O)c1)c1cc(O)c(O)c(O)c1` [EGCG, (-)-Epigallocatechin gallate], the overall tolerability ([1]; after nebulized inhalation 3mg/10mg/30mg) was “overall tolerability was good”, the “physical examination, vital signs, heart function, and lung function” value ([1]; all subjects (nebulized 3mg/10mg/30mg, oral capsules 600mg)) was “No significant abnormalities” and the “inhalation Cmax relative to the oral Cmax” value ([1]; human plasma, 10mg nebulized dose group vs oral capsules 600mg) was “about 1/227”. The Cmax level [1, 3] was “lower”, the “time to reach peak plasma concentration (Tmax)” value [1, 3] was “later” and the “subjects with local symptoms in the oropharynx and respiratory tract” value (“subjects with local symptoms” for short) ([1]; 3mg dose group) was “no subjects”. For the same molecule, the “subjects with local symptoms” value ([1]; 10mg dose group, mild) was 1 out of 4, the “subjects with local symptoms” value ([1]; 30mg dose group, mild) was 2 out of 4 and the “fibrosis score vs model group” value ([2]; aerosol dose 0.4mg/kg or higher, P < 0.05) was “significant reduction in pulmonary fibrosis”. For the same molecule, the inhibiting alveolar expansion ([2]; all tracheal nebulization groups (0.2, 0.4, 0.8, 1.6mg/kg), 0.4mg/kg most effective) was “significant differences compared to the model group”, the “inhibiting inflammatory cell infiltration” value ([2]; all tracheal nebulization groups, 0.4mg/kg best (P < 0.05)) was “reduced inflammatory cell infiltration” and the “fibrosis in the lungs (Masson's staining)” value ([2]; inhaling 0.8mg/kg and 1.6mg/kg, D22) was “almost close to the level of the healthy control group”. The “Hydroxyproline Content” value ([2]; D22, Inh. 0.2mg/kg once a day from D10) was 2.807 ± 0.3982 µg/µL, the “Hydroxyproline Content” value ([2]; D22, Inh. 0.4mg/kg once a day from D10) was 2.046 ± 0.690 µg/µL and the “Hydroxyproline Content” value ([2]; D22, Inh. 0.8mg/kg once a day from D10) was 1.033 ± 0.1476 µg/µL. The “Hydroxyproline Content” value ([2]; D22, Inh. 1.6 mg/kg once a day from D10) was 1.67 ± 0.1888 µg/µL, the “Hydroxyproline Content” value ([2]; D22, P.O 100mg/kg once a day from D10) was 1.928 ± 0.1326 µg/µL and the “collagen deposition (Masson's staining) vs model group” value ([2]; oral administration 100 mg/kg, difference not significant, D22) was “decreased slightly”. For the same molecule, the “lung tissue histopathology (H&E staining)” value ([2]; oral administration 100 mg/kg, no significant difference vs model group, D22) was “slight improvement in lung tissue morphology”, the “inhibiting inflammatory cell infiltration” value ([2]; oral administration (oral gavage) 100 mg/kg) was “no anti-inflammatory effect” and the “alveolar inflammation scores vs model group” value ([2]; oral gavage 100 mg/kg) was “no significant difference”. The body weight ([2]; oral gavage 100 mg/kg) was “weight gain in the oral gavage group was slower”, the “fibrosis score vs model group” value ([2]; oral gavage 100 mg/kg) was “did not show a significant difference” and the “lung coefficient vs model group” value ([2]; oral gavage 100 mg/kg) was “did not show a significant difference”. For the same molecule, the “alveolar inflammation scores vs model group” value ([2]; tracheal nebulization) was “significantly suppressed the further development of alveolar inflammation”, the inhibiting alveolar hemorrhage ([2]; tracheal nebulization 0.2mg/kg and 0.4mg/kg) was “significantly better than the oral gavage group” and the “lung coefficient vs model group” value ([2]; tracheal nebulization 0.2mg/kg and 0.4mg/kg, P < 0.01, P < 0.001) was “significantly reduced”. The body weight ([2]; tracheal nebulization 0.2mg/kg and 0.4mg/kg, significant vs model group) was “returned to baseline levels by Day 22”, the “hydroxyproline content in lung tissue (in words)” value ([2]; tracheal nebulization 0.2mg/kg, 0.4mg/kg, and 0.8mg/kg, D22) was “dose-dependently reduced” and the “inhibiting alveolar fibrous exudates” value ([2]; tracheal nebulization 1.6mg/kg) was “significant differences compared to the model group”. The “lung tissue histopathology (H&E staining)” value ([2]; tracheal nebulization, best at 0.4mg/kg and 0.8mg/kg, D22) was “reduced alveolar interstitial proliferation” and the “collagen deposition (Masson's staining) vs model group” value ([2]; tracheal nebulization, dose-response, especially 0.4mg/kg and above, D22) was “significantly reduced collagen deposition”.
